Patent publication US12209087B2, “AKT1 modulators” (Alterome Therapeutics, Inc., priority 2022, dated 2025)

Target: T1, full length AKT E17K (Homo sapiens, UniProt P31749, E17K)
T1 construct: host or cells: HEK-293 (ATCC CRL-1573)
Assay: NanoBRET Target Engagement (TE) Assay
Assay type: cell-based
Conditions: competitive tracer displacement in living cells, read-out: AKT1 E17K IC50
Summary of the method: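 Compound and tracer incubated 2 h before luminescence at donor 450 nm and acceptor 600 nm, with extracellular signal inhibited. EC50 by sigmoidal variable-slope regression.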

T1 sequence (P31749 whole entry E17K): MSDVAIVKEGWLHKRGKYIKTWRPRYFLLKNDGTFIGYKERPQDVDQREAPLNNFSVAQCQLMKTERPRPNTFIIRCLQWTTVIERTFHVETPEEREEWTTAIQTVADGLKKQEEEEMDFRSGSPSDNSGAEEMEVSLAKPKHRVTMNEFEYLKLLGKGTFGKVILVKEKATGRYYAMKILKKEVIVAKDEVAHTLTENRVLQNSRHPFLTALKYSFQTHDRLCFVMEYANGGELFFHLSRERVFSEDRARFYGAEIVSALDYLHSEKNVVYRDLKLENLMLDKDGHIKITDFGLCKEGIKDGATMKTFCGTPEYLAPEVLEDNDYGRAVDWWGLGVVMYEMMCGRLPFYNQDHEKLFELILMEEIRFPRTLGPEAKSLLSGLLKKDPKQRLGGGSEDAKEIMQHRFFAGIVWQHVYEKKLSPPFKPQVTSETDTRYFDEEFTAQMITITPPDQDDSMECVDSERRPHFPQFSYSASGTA

Structure (SMILES)	IC50
N#Cc1ncnc(N2CC3CCC(C2)N3Cc2ccc(-n3c(-c4cccnc4N)nc4ccc(N5CCOCC5)nc43)cc2)n1 [Example 285, 4-(8-(4-(2-(2-Aminopyridin-3-yl)-5-morpholino-3H-imidazo[4,5-b]pyridin-3-yl)benzyl)-3,8-diazabicyclo[3.2.1]octan-3-yl)-1,3,5-triazine-2-carbonitrile]	< 15 nM
CC(C)c1ccc2nc(-c3cccnc3N)n(-c3ccc(CN4CCC(Nc5ccnc(C#N)n5)CC4)cc3)c2n1 [Example 286, 4-((1-(4-(2-(2-Aminopyridin-3-yl)-5-isopropyl-3H-imidazo[4,5-b]pyridin-3-yl)benzyl)piperidin-4-yl)amino)pyrimidine-2-carbonitrile]	< 15 nM
COc1ccc2nc(-c3cccnc3N)n(-c3ccc(CN4CCC(Nc5ccnc(C#N)n5)CC4)cc3)c2n1 [Example 287, 4-((1-(4-(2-(2-Aminopyridin-3-yl)-5-methoxy-3H-imidazo[4,5-b]pyridin-3-yl)benzyl)piperidin-4-yl)amino)pyrimidine-2-carbonitrile]	< 15 nM
N#Cc1nccc(NC2CCN(Cc3ccc(-n4c(-c5cccnc5N)nc5ccc(C(N)=O)nc54)cc3)CC2)n1 [Example 288, 2-(2-aminopyridin-3-yl)-3-(4-((4-((2-cyanopyrimidin-4-yl)amino)piperidin-1-yl)methyl)phenyl)-3H-imidazo[4,5-b]pyridine-5-carboxamide]	15 to 60 nM
CN(C)C(=O)c1ccc2nc(-c3cccnc3N)n(-c3ccc(CN4CCC(Nc5ccnc(C#N)n5)CC4)cc3)c2n1 [Example 289, 2-(2-aminopyridin-3-yl)-3-(4-((4-((2-cyanopyrimidin-4-yl)amino)piperidin-1-yl)methyl)phenyl)-N,N-dimethyl-3H-imidazo[4,5-b]pyridine-5-carboxamide]	60 to 600 nM
N#Cc1cc(N2CCN(Cc3ccc(-n4c(-c5cccnc5N)nc5ccc(C6CC6)nc54)cc3)CC2)ncn1 [Example 290, 6-(4-(4-(2-(2-Aminopyridin-3-yl)-5-cyclopropyl-3H-imidazo[4,5-b]pyridin-3-yl)benzyl)piperazin-1-yl)pyrimidine-4-carbonitrile]	15 to 60 nM
N#Cc1cc(NC2CCN(Cc3ccc(-n4c(-c5cccnc5N)nc5ccc(C6CC6)nc54)cc3)CC2)ncn1 [Example 291, 6-((1-(4-(2-(2-Aminopyridin-3-yl)-5-cyclopropyl-3H-imidazo[4,5-b]pyridin-3-yl)benzyl)piperidin-4-yl)amino)pyrimidine-4-carbonitrile]	15 to 60 nM
N#Cc1ncnc(N2CCN(Cc3ccc(-n4c(-c5cccnc5N)nc5ccc(N6CCOCC6)nc54)cc3)CC2)n1 [Example 292, 4-(4-(4-(2-(2-Aminopyridin-3-yl)-5-morpholino-3H-imidazo[4,5-b]pyridin-3-yl)benzyl)piperazin-1-yl)-1,3,5-triazine-2-carbonitrile]	< 15 nM
N#Cc1nccc(N2CCN(Cc3ccc(-n4c(-c5cccnc5N)nc5ccc(-c6ccccc6C#N)nc54)cc3)CC2)n1 [Example 293, 4-(4-(4-(2-(2-Aminopyridin-3-yl)-5-(2-cyanophenyl)-3H-imidazo[4,5-b]pyridin-3-yl)benzyl)piperazin-1-yl)pyrimidine-2-carbonitrile]	< 15 nM
N#Cc1ccc(-c2ccc3nc(-c4cccnc4N)n(-c4ccc(CN5CCN(c6ccnc(C#N)n6)CC5)cc4)c3n2)cc1 [Example 294, 4-(4-(4-(2-(2-Aminopyridin-3-yl)-5-(4-cyanophenyl)-3H-imidazo[4,5-b]pyridin-3-yl)benzyl)piperazin-1-yl)pyrimidine-2-carbonitrile]	15 to 60 nM
N#Cc1nccc(N2CCN(Cc3ccc(-n4c(-c5cccnc5N)nc5ccc(-c6cccc(F)c6)nc54)cc3)CC2)n1 [Example 295, 4-(4-(4-(2-(2-Aminopyridin-3-yl)-5-(3-fluorophenyl)-3H-imidazo[4,5-b]pyridin-3-yl)benzyl)piperazin-1-yl)pyrimidine-2-carbonitrile]	< 15 nM
N#Cc1nccc(N2CCN(Cc3ccc(-n4c(-c5cccnc5N)nc5ccc(-c6cccc(Cl)c6)nc54)cc3)CC2)n1 [Example 296, 4-(4-(4-(2-(2-Aminopyridin-3-yl)-5-(3-chlorophenyl)-3H-imidazo[4,5-b]pyridin-3-yl)benzyl)piperazin-1-yl)pyrimidine-2-carbonitrile]	< 15 nM
N#Cc1ccnc(N2CCN(Cc3ccc(-n4c(-c5cccnc5N)nc5ccc(-c6cccc(Cl)c6)nc54)cc3)CC2)n1 [Example 297, 2-(4-(4-(2-(2-Aminopyridin-3-yl)-5-(3-chlorophenyl)-3H-imidazo[4,5-b]pyridin-3-yl)benzyl)piperazin-1-yl)pyrimidine-4-carbonitrile]	60 to 600 nM
N#Cc1nccc(NC2CCN(Cc3ccc(-n4c(-c5cccnc5N)nc5ccc(C6CC6)nc54)cc3)CC2)n1 [Example 298, 4-((1-(4-(2-(2-Aminopyridin-3-yl)-5-cyclopropyl-3H-imidazo[4,5-b]pyridin-3-yl)benzyl)piperidin-4-yl)amino)pyrimidine-2-carbonitrile]	< 15 nM
N#Cc1nccc(NC2CCN(Cc3ccc(-n4c(-c5cccnc5N)nc5ccc(C6CCOCC6)nc54)cc3)CC2)n1 [Example 299, 4-((1-(4-(2-(2-Aminopyridin-3-yl)-5-(tetrahydro-2H-pyran-4-yl)-3H-imidazo[4,5-b]pyridin-3-yl)benzyl)piperidin-4-yl)amino)pyrimidine-2-carbonitrile]	< 15 nM
N#Cc1ncnc(NC2CN(Cc3ccc(-n4c(-c5cccnc5N)nc5ccc(-c6ccccc6)nc54)cc3)C2)n1 [Example 300, 4-((1-(4-(2-(2-Aminopyridin-3-yl)-5-phenyl-3H-imidazo[4,5-b]pyridin-3-yl)benzyl)azetidin-3-yl)amino)-1,3,5-triazine-2-carbonitrile]	15 to 60 nM
N#Cc1ncnc(N2CC3(CCN(Cc4ccc(-n5c(-c6cccnc6N)nc6ccc(-c7ccccc7)nc65)cc4)C3)C2)n1 [Example 301, 4-(6-(4-(2-(2-Aminopyridin-3-yl)-5-phenyl-3H-imidazo[4,5-b]pyridin-3-yl)benzyl)-2,6-diazaspiro[3.4]octan-2-yl)-1,3,5-triazine-2-carbonitrile]	< 15 nM
N#Cc1nccc(N2CCC3(CCN(Cc4ccc(-n5c(-c6cccnc6N)nc6ccc(-c7ccccc7)nc65)cc4)C3)C2)n1 (centres unmarked) [Example 302, 4-(7-(4-(2-(2-Aminopyridin-3-yl)-5-phenyl-3H-imidazo[4,5-b]pyridin-3-yl)benzyl)-2,7-diazaspiro[4.4]nonan-2-yl)pyrimidine-2-carbonitrile]	< 15 nM
N#Cc1ncnc(N2CC3(CN(Cc4ccc(-n5c(-c6cccnc6N)nc6ccc(-c7ccccc7)nc65)cc4)C3)C2)n1 [Example 303, 4-(6-(4-(2-(2-Aminopyridin-3-yl)-5-phenyl-3H-imidazo[4,5-b]pyridin-3-yl)benzyl)-2,6-diazaspiro[3.3]heptan-2-yl)-1,3,5-triazine-2-carbonitrile]	< 15 nM
N#Cc1ncnc(N2CCN(Cc3ccc(-n4c(-c5cccnc5N)nc5ccc(-c6ccccc6Cl)nc54)cc3)CC2)n1 [Example 304, 4-(4-(4-(2-(2-Aminopyridin-3-yl)-5-(2-chlorophenyl)-3H-imidazo[4,5-b]pyridin-3-yl)benzyl)piperazin-1-yl)-1,3,5-triazine-2-carbonitrile]	< 15 nM
